From publication PMC3462495 (2012)

Biological target: p90 ribosomal S6 kinase 2 (RSK2), N-terminal kinase domain (mRSK2NTKD) (Mus musculus, UniProt P18654)
Test: ITC
Type: binding

Chain of p90 ribosomal S6 kinase 2 (RSK2), N-terminal kinase domain (mRSK2NTKD) (P18654 45-346): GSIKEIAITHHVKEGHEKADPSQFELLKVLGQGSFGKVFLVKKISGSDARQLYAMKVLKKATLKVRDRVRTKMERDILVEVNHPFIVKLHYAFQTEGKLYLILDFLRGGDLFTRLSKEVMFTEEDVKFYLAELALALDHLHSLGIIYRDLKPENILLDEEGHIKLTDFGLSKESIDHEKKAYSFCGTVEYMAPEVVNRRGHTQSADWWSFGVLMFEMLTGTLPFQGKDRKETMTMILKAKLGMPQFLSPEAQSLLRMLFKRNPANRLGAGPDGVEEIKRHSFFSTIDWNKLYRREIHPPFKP

## Nc1ncnc2c1ncn2[C@@H]1O[C@H](COP(=O)(O)OP(=O)(O)NP(=O)(O)O)[C@@H](O)[C@H]1O [AMP-PNP]
  Kd: 50 µM
